US5932608A, “Melatonin derivative dermocosmetic compositions for whitening/depigmenting the skin” (Societe L'Oreal S.A., priority 1996, dated 1999)

How the values were obtained:
fungal tyrosinase = assay: in vitro test of inhibition of tyrosinase (dopachrome formation, 475 nm); assay type: biochemical; details: for inhibition of the tyrosinase activity (decrease in the percentage of formation of dopachrome): 25° C., pH 6.5, FIGS. 1 and 2
Text: According to this test, the amount of dopachrome formed during the reaction sequence for the conversion of tyrosine into melanins was monitored by visible spectrometry at 475 nm. These reactions were catalyzed in vitro by fungal tyrosinase, in the presence of a reductive co-substrate (for example L-dopa in small amounts) in order to initiate the hydroxylation reaction of the L-tyrosine into L-dopa, which was then oxidized catalytically into dopaquinone and then into dopachrome.
The concentration of dopachrome formed over time was thus measured in the presence and absence of the inhibitor. The inhibition effect is expressed by lowering the maximum amount of dopachrome formed (optical density value at 475 nm read at the plateau of the curve) relative to the amount obtained in the absence of inhibitor.
A. 0.1M phosphate buffer pH 6.5 (1% Tween 20)
B. Stock solution of 2×10^-3 M L-tyrosine in A
C. Stock solution of 10^-4 M L-dopa in A
D. Stock solution of fungal tyrosinase containing 2400 units/ml in A
E. Stock solution of the inhibitor at 10^-2 M in A
The solutions C and D were prepared on the day of use.
Reference cell: 3 ml of A
Homogenize and equilibrate at 25° C.
Mixed together rapidly and observed the kinetics by measuring the absorbance as a function of time.

skin pigmentation = details: exogenous melatonin; D. B. McElhinney et al., J. Invest. Dermatol, 102 (2), 258-9 (1994); cited from earlier work

Row | SMILES | inhibition of the tyrosinase activity (decrease in the percentage of formation of dopachrome) (fungal tyrosinase; 0.1 ml of solution E (inhibitor 10^-2 M stock) in 3 ml test cell) | inhibition of the tyrosinase activity (decrease in the percentage of formation of dopachrome) (fungal tyrosinase; 0.2 ml of solution E (inhibitor 10^-2 M stock) in 3 ml test cell) | inhibition of the tyrosinase activity (fungal tyrosinase; similar tests, amount of inhibitor not stated) | effect on skin pigmentation in man (skin pigmentation)
1 | COc1cc2c(CCNC(C)=O)c[nH]c2cc1O [6-hydroxymelatonin] | significant inhibition | significant inhibition | – | –
2 | COc1ccc2[nH]cc(CCNC(C)=O)c2c1 [melatonin, N-acetyl-5-methoxytryptamine] | – | – | absence of inhibition | no effect
